In patent publication US8912179B2, “Heterocyclyl compounds as histamine H3 receptor ligands” (Suven Life Sciences Limited, priority 2010, dated 2014):
Where a name gives a salt, the structure may show the parent alone.

Target: Histamine H3 receptor (UniProt Q9Y5N1)
Assay: Binding assay for human or rat histamine H3 receptor ([3H] R-α-methylhistamine)
Settings: [3H] R-α-methylhistamine 3.0 nM; rat brain frontal cortex or recombinant human receptor in CHO cells (not specified which)
Protocol: Compounds can be evaluated according to the following procedures.
• Receptor source: Rat brain frontal cortex or recombinant human cDNA expressed in CHO cells • Radioligand: [^3H] R-α-methylhistamine • Final ligand concentration—[3.0 nM] • Non-specific determinant: R-α-methylhistamine (100 uM) • Reference compound: R-α-methylhistamine • Positive control: R-α-methylhistamine Incubation Conditions:
Increasing concentrations of test compounds or standard were incubated with membrane receptors and radioligand in 5 mM MgCl2 and 50 mM TRIS-HCl (pH 7.4) for 60 minutes at room temperature. The reaction was terminated by rapid vacuum filtration onto the glass fiber filters. Radioactivity trapped onto the filters was determined and compared to the control values in order to ascertain any interactions of the test compound(s) with either cloned human or rat receptor binding site.

Work on `O=C(C1CC1)N1CCc2nc(OC3CCC(C4CCC4)CC3)sc2CC1` (stereo not shown) [Example 2, [2-(4-Cyclobutyl-cyclohexyloxy)-4,5,7,8-tetrahydro-thiazolo[5,4-d]azepin-6-yl]-cyclopropyl-methanone tartrate] yielded a Ki of 2 nM.

Work on `CCC(=O)NC1CCc2nc(OC3CCN(C4CCC4)CC3)sc2C1` (stereo not shown) [Example 3, N-[2-(1-Cyclobutyl-piperidin-4-yloxy)-4,5,6,7-tetrahydro-benzothiazol-6-yl]-propionamide] yielded a Ki of 26.7 nM.

Work on `O=C(c1ccccc1F)N1CCc2nc(OC3CCN(C4CCC4)CC3)sc2C1` [Example 6, [2-(1-Cyclobutyl-piperidin-4-yloxy)-6,7-dihydro-4H-thiazolo[5,4-c]pyridin-5-yl]-(2-fluoro-phenyl)-methanone tartrate] yielded a Ki of 13.4 nM.

`CC(C)CC(=O)N1CCc2nc(OC3CCN(C4CCC4)CC3)sc2C1` [Example 7, 1-[2-(1-Cyclobutyl-piperidin-4-yloxy)-6,7-dihydro-4H-thiazolo[5,4-c]pyridin-5-yl]-3-methyl-butan-1-one tartrate] showed a Ki of 10.5 nM.

Molecule `CC(C)N1CCC(Oc2nc3c(s2)CN(C(=O)C2CCC2)CC3)CC1` [Example 8, Cyclobutyl-[2-(1-isopropyl-piperidin-4-yloxy)-6,7-dihydro-4H-thiazolo[5,4-c]pyridin-5-yl]-methanone] has a Ki of 7.69 nM.

`CC(C)N1CCC(Oc2nc3c(s2)CN(C(=O)C2CC2)CC3)CC1` [Example 9, Cyclopropyl-[2-(1-isopropyl-piperidin-4-yloxy)-6,7-dihydro-4H-thiazolo[5,4-c]pyridin-5-yl]-methanone tartrate] showed a Ki of 9.94 nM.

`O=C(C1CC1)N1CCc2nc(OC3CCN(C4CC4)CC3)sc2C1` [Example 10, Cyclopropyl-[2-(1-cyclopropyl-piperidin-4-yloxy)-6,7-dihydro-4H-thiazolo[5,4-c]pyridin-5-yl]-methanone tartrate] showed a Ki of 5.43 nM.

In the case of `O=C(C1CCC1)N1CCc2nc(OC3CCN(C4CC4)CC3)sc2C1` [Example 11, Cyclobutyl-[2-(1-cyclopropyl-piperidin-4-yloxy)-6,7-dihydro-4H-thiazolo[5,4-c]pyridin-5-yl]-methanone tartrate], the Ki is reported as 12 nM.

Molecule `O=C(C1CC1)N1CCCC(Oc2nc3c(s2)CN(C2CCC2)CC3)C1` (stereo not shown) [Example 14, [3-(5-Cyclobutyl-,6,7-dihydro-4H-thiazolo[5,4-c]pyridin-2-yloxy)-piperidin-1-yl]-cyclopropyl-methanone tartrate] has a Ki of 23.6 nM.

Work on `O=C(c1ccncc1)N1CCc2nc(OC3CCN(C4CCC4)CC3)sc2C1` [Example 16, [2-(1-Cyclobutyl-piperidin-4-yloxy)-6,7-dihydro-4H-thiazolo[5,4-c]pyridin-5-yl]-pyridin-4-yl-methanone tartrate] yielded a Ki of 33.5 nM.

`COc1ccc(C(=O)N2CCc3nc(OC4CCN(C5CCC5)CC4)sc3C2)cc1` [Example 17, [2-(1-Cyclobutyl-piperidin-4-yloxy)-6,7-dihydro-4H-thiazolo[5,4-c]pyridin-5-yl]-(4-methoxy-phenyl)-methanone tartrate] gave a Ki of 21.2 nM.

Molecule `O=C(CN1CCCCC1)N1CCc2nc(OC3CCN(C4CCC4)CC3)sc2C1` [Example 18, 1-[2-(1-Cyclobutyl-piperidin-4-yloxy)-6,7-dihydro-4H-thiazolo[5,4-c]pyridin-5-yl]-2-piperidin-1-yl-ethanone tartrate] has a Ki of 6.96 nM.

With `O=C(CC1CC1)N1CCc2nc(OC3CCN(C4CCC4)CC3)sc2C1` [Example 19, 1-[2-(1-Cyclobutyl-piperidin-4-yloxy)-6,7-dihydro-4H-thiazolo[5,4-c]pyridin-5-yl]-2-cyclopropyl-ethanone] the Ki was 12.3 nM.

`O=S(=O)(c1ccccc1F)N1CCc2nc(OC3CCN(C4CCC4)CC3)sc2C1` [Example 20, 2-(1-Cyclobutyl-piperidin-4-yloxy)-5-(2-fluoro-benzenesulfonyl)-,6,7-dihydro-4H-thiazolo[5,4-c]pyridine tartrate] showed a Ki of 7.4 nM.

For `CS(=O)(=O)N1CCc2nc(OC3CCN(C4CCC4)CC3)sc2C1` [Example 21, 2-(1-Cyclobutyl-piperidin-4-yloxy)-5-methanesulfonyl-,6,7-dihydro-4H-thiazolo[5,4-c]pyridine], the Ki was 22.6 nM.

`FC(F)(F)c1ccc(N2CCc3nc(OC4CCN(C5CCC5)CC4)sc3C2)cn1` [Example 23, 2-(1-Cyclobutyl-piperidin-4-yloxy)-5-(2-trifluoromethyl-pyridin-5-yl)-,6,7-dihydro-4H-thiazolo[5,4-c]pyridine] showed a Ki of 0.3 nM.

`O=C(c1ccc(C(F)(F)F)nc1)N1CCc2nc(OC3CCN(C4CCC4)CC3)sc2C1` [Example 25, [2-(1-Cyclobutyl-piperidin-4-yloxy)-6,7-dihydro-4H-thiazolo[5,4-c]pyridin-5-yl]-(2-trifluoromethyl-pyridin-5-yl)-methanone] gave a Ki of 35.3 nM.

For `O=C(c1cccnc1)N1CCc2nc(OC3CCN(C4CCC4)CC3)sc2C1` [Example 26, [2-(1-Cyclobutyl-piperidin-4-yloxy)-6,7-dihydro-4H-thiazolo[5,4-c]pyridin-5-yl]-pyridin-3-yl-methanone tartrate], the Ki was 32.5 nM.

`c1cncc(N2CCc3nc(OC4CCN(C5CCC5)CC4)sc3C2)c1` [Example 27, 2-(1-Cyclobutyl-piperidin-4-yloxy)-5-pyridin-3-yl-,6,7-dihydro-4H-thiazolo[5,4-c]pyridine tartrate] was tested, and the Ki was 0.75 nM.

`O=C(N1CCOCC1)N1CCc2nc(OC3CCN(C4CCC4)CC3)sc2C1` [Example 29, [2-(1-Cyclobutyl-piperidin-4-yloxy)-6,7-dihydro-4H-thiazolo[5,4-c]pyridin-5-yl]-morpholin-4-yl-methanone tartrate] showed a Ki of 11.3 nM.

`O=C(N1CCCCC1)N1CCc2nc(OC3CCN(C4CCC4)CC3)sc2C1` [Example 30, [2-(1-Cyclobutyl-piperidin-4-yloxy)-6,7-dihydro-4H-thiazolo[5,4-c]pyridin-5-yl]-piperidin-1-yl-methanone hydrochloride] showed a Ki of 4.19 nM.

In the case of `NC(=O)c1ccc(N2CCc3nc(OC4CCN(C5CCC5)CC4)sc3C2)nc1` [Example 31, 6-[2-(1-Cyclobutyl-piperidin-4-yloxy)-6,7-dihydro-4H-thiazolo[5,4-c]pyridin-5-yl]-nicotinamide], the Ki is reported as 1.62 nM.

`O=C(C1CCCC1)N1CCc2nc(OC3CCN(C4CCC4)CC3)sc2C1` [Example 32, [2-(1-Cyclobutyl-piperidin-4-yloxy)-6,7-dihydro-4H-thiazolo[5,4-c]pyridin-5-yl]-cyclopentyl-methanone tartrate] was tested, and the Ki was 4.6 nM.

With `O=C(C1CC1)N1CCCc2nc(OC3CCN(C4CCC4)CC3)sc21` [Example 33, [2-(1-Cyclobutyl-piperidin-4-yloxy)-6,7-dihydro-5H-thiazolo[5,4-b]pyridin-4-yl]-cyclopropyl-methanone tartrate] the Ki was 15.4 nM.

`CC(C)N1CCC(Oc2nc3c(s2)CCN(C(=O)C2CC2)CC3)CC1` [Example 34, Cyclopropyl-[2-(1-isopropyl-piperidin-4-yloxy)-4,5,7,8-tetrahydro-thiazolo[5,4-d]azepin-6-yl]-methanone tartrate] showed a Ki of 15.6 nM.
